# From patent publication US20240285653A1, “COMPOSITIONS AND METHODS FOR TREATMENT AND PREVENTION OF DISEASES UTILIZING TIRILAZAD SALTS” (priority 2022, published 2024)
# Read-outs that look alike come from different tables or passages of the source.
# Tested on: explant tissue from the dermoepidermal junction of the hoof
# Type: cell-based
# Experimental: An in vitro study was conducted to analyze the protective effects of tirilazad mesylate on cellular degeneration as a result of Bothrops alternatus snake venom as a model for laminitis. Explant tissue samples were obtained from the dermoepidermal junction of the hoof of the right forelimb under nervous system block without the need for euthanasia.
# Under sterile conditions, laminar cuts (mini-explants) were made of each explant and the tissue washed with physiological solution. The mini-explants were pre-incubated for 5 hours with tirilazad and then for 24 hours with Bothrops venom. Culture medium was as follows: Dulbecco's […] (DMEM, GIBCO-Invitrogen) with 10% heat-inactivated fetal bovine serum (FBS, GIBCO-Invitrogen), L-Glutamine (29.2 mg/mL), Penicillin (10,000 units/mL), and Streptomycin (10,000 μg/mL, GIBCO-Invitrogen) as antibiotics.
# Histopathology: Tissues were processed with classical histological techniques, e.g., cutting by microtome (Minot) and stained with hematoxylin-eosin (H-E) and Periodic Acid Schiff (PAS) stains.
# [1] = Tirilazad 1 μM (5 hours pre-incubation) + venom 75 μg/ml (24 hours), listed as tirilazad
# [2] = Tirilazad 1 μM alone, no venom, listed as tirilazad
# [3] = Tirilazad 3 μM (5 hours pre-incubation) + venom 75 μg/ml (24 hours)
# [4] = Tirilazad 3 μM alone, no venom, listed as tirilazad
# [5] = Tirilazad 10 μM (5 hours pre-incubation) + venom 75 μg/ml (24 hours), listed as tirilazad
# [6] = Tirilazad 10 μM alone, no venom
# [7] = Tirilazad 10 μM alone, no venom, listed as tirilazad
# [8] = Tirilazad 20 μM (5 hours pre-incubation) + venom 75 μg/ml (24 hours)
# [9] = Tirilazad 20 μM alone, no venom
smiles,measurement,setting,value
"C[C@@H]1C[C@H]2[C@@H]3CCC4=CC(=O)C=C[C@]4(C)C3=CC[C@]2(C)[C@H]1C(=O)CN1CCN(c2cc(N3CCCC3)nc(N3CCCC3)n2)CC1 [Tirilazad, 16α-methyl-21-[4-[2,6-bis(1-pyrrolidinyl)-4-pyrimidinyl]-1-piperazinyl]pregna-1,4,9(11)-triene-3,20-dione]",Separation of Basement Membrane,Tirilazad 1 μM (5 hours pre-incubation) + venom 75 μg/ml (24 hours),No
same,Cell Nuclei,[1],intense presence of altered epidermal cells
same,Pyknosis or Karyopyknosis,[1],nuclear pyknosis
same,Separation of Basement Membrane,[1],did not show separation of the basement membrane
same,Pyknosis or Karyopyknosis,"Tirilazad 1 μM alone, no venom",No
same,Separation of Basement Membrane,"Tirilazad 1 μM alone, no venom",No
same,Cell Nuclei,[2],epidermal cells were normal and showed preserved cytoplasmic and nuclear structure
same,Separation of Basement Membrane,[2],did not show separation of the basement membrane
same,Cell Nuclei,[3],intense presence of altered epidermal cells
same,Pyknosis or Karyopyknosis,[3],nuclear pyknosis predominating
same,Separation of Basement Membrane,[3],slight separation of the basement membrane
same,Separation of Basement Membrane,"Tirilazad 3 μM alone, no venom",No
same,Cell Nuclei,[4],slight epidermal cytoplasmic and nuclear alteration
same,Separation of Basement Membrane,[4],did not show separation of the basement membrane
same,Separation of Basement Membrane,Tirilazad 10 μM (5 hours pre-incubation) + venom 75 μg/ml (24 hours),No
same,Cell Nuclei,[5],Moderate presence of altered epidermal cells
same,Pyknosis or Karyopyknosis,[5],moderate nuclear pyknosis
same,Separation of Basement Membrane,[5],did not show separation of the basement membrane
same,Pyknosis or Karyopyknosis,[6],No
same,Separation of Basement Membrane,[6],No
same,Cell Nuclei,[7],epidermal cells were normal and showed preserved cytoplasmic and nuclear structure
same,Separation of Basement Membrane,[7],did not show separation of the basement membrane
same,Cell Nuclei,[8],intense presence of altered epidermal cells
same,Pyknosis or Karyopyknosis,[8],intense nuclear pyknosis
same,Separation of Basement Membrane,[8],intense separation of the basement membrane
same,Cell Nuclei,[9],epidermal cells were normal and showed preserved cytoplasmic and nuclear structure
same,Pyknosis or Karyopyknosis,[9],No
same,Separation of Basement Membrane,[9],intense separation of the basement membrane
same,Effect on cellular structure in hoof tissue (overall conclusion),summary of the explant study,provides a protective and/or therapeutic effect on cellular structure in hoof tissue
